This note sets out measurements from ChEMBL document CHEMBL1126063, “A novel probe for the cannabinoid receptor” (J Med Chem, 1992).

The target in one assay is Cannabinoid receptor (Rattus norvegicus, UniProt Q9QZN9+P20272). The experiment in a line: Compound was evaluated for the competitive inhibition of [3H]3-(1,1-Dimethyl-heptyl)-9-hydroxymethyl-6,6-dimethyl-6a,7,8,9,10,10a-hexahydro-6H-benzo[c]chromen-1-ol to cannabinoid receptor from synaptosomal membranes of rat whole brain.
In assay [1] the test system is Columba livia. The experiment in a line: Effective dose injected to pigeons in drug discrimination test at a given period of 1.5 hours. The class given is functional. Particulars: in Columbidae.
Assay [2] relates to Columba livia. The assay is described as follows: Effective dose injected to pigeons in drug discrimination test at a given period of 4.5 hours. The conditions noted are these: in Columbidae. It counts as functional.
The subject of assay [3] is Columba livia. The assay is described as follows: Effective dose injected to pigeons in drug discrimination test at a given period of 9.0 hours. The class given is functional. The conditions noted are these: in Columbidae.

A word on the Ki: it is the dissociation constant of the complex between target and ligand, obtained from inhibition or displacement. The ED50 is the midpoint of the dose-response relation. Lower therefore signals greater potency.

`CCCCCCC(C)(C)c1cc(O)c2c(c1)OC(C)(C)[C@@H]1CC=C(CO)CC21` (some centres not stated) showed a Ki on Cannabinoid receptor of 0.181 nM. The ED50 with Columba livia [1] was 4 µg/kg; in the assay with Columba livia [2], 2 µg/kg; in the assay on Columba livia [3], 2 µg/kg.

For `CCCCCCC(C)(C)c1cc(O)c2c(c1)OC(C)(C)[C@@H]1CC[C@@H](CO)CC21` (some centres not stated), on Cannabinoid receptor, the Ki was determined as 0.045 nM. For the same compound, the values for the ED50 with Columba livia [1], in the assay on Columba livia [2] and in the assay on Columba livia [3] were 5 µg/kg, 2 µg/kg and 3 µg/kg, respectively.

On Cannabinoid receptor, `CCCCCCC(C)(C)c1cc(O)c2c(c1)OC(C)(C)C1CC=C(CO)CC21` (configuration not stated) yielded a Ki of 466 nM.

Regarding `CCCCCc1cc(O)c2c(c1)OC(C)(C)[C@@H]1CCC(C)=C[C@@H]21` [DRONABINOL], the ED50 with Columba livia [1] was found to be 160 µg/kg; in the assay on Columba livia [2], 250 µg/kg; in the assay on Columba livia [3] it was 1210 µg/kg.
